Test results as given in patent US20090247768A1, “CRYSTALLINE SULFONAMIDE-CONTAINING INDOLE COMPOUND AND PROCESS FOR PREPARING THE SAME” (priority 2003, published 2009).

Assay: Solid stability against light (impurity content by HPLC after storage)
Format: physicochemical
Details: for Impurity content (%): HPLC; for change in impurity content before and after storage: 25° C./1000 Lx, 1 month and 3 months
Description: Column: ODS column (inner diameter=4.6 mm, column length=250 mm, particle size=5 μm) Column temperature: 30° C. Detection wavenumber: 282 nm Flow rate: 1.0 mL/min Mobile phase: Solution A: CH3CN/H2O/70% HClO4=100/900/1 (v/v/v) Solution B: CH3CN/H2O/70% HClO4=900/100/1 (v/v/v)
All of the peaks and peak areas were calculated from the chromatogram, and the impurity amount for each peak (except for the peak of N-(3-cyano-4-methyl-1H-indol-7-yl)-3-cyanobenzenesulfonamide) was calculated according to the following formula.
Individual impurity content (%)=(individual impurity peak area)/(total of all peak areas)×100
Peaks with impurity contents of 0.05% or greater were recorded as impurity peaks, and their total was recorded as the impurity content of the crystals.
Impurity content (%)=Total of individual impurity contents (%)
The crystals obtained in Example 1C, Example 1E and Example 1F were stored for 1 month and 3 months at 25° C./1000 Lx (LT-120D3J Light Stability Tester by Nagano Science, Japan), and then the impurity contents were measured by HPLC.
HPLC was conducted under the same conditions as in Test Example 1, except that elution was performed with the gradient program shown in Table 14.
The impurity content of the crystals was determined by the same method as described for Test Example 1. […] That is, the crystals obtained in Examples 1F and 1C (Form A and Form C) clearly had higher stability against light.

[1] = solid crystals stored at 25° C./1000 Lx/1 month
[2] = solid crystals stored at 25° C./1000 Lx/3 months

Structure (SMILES)	Impurity content (%) [1] [%]	Impurity content (%) [2] [%]	change in impurity content before and after storage (solid crystals)	Impurity content (%) (solid crystals, before storage)
Cc1ccc(NS(=O)(=O)c2cccc(C#N)c2)c2[nH]cc(C#N)c12 [Example 1C, N-(3-cyano-4-methyl-1H-indol-7-yl)-3-cyanobenzenesulfonamide]	0.51	0.51	no change	0.51
Cc1ccc(NS(=O)(=O)c2cccc(C#N)c2)c2[nH]cc(C#N)c12 [Example 1E, N-(3-cyano-4-methyl-1H-indol-7-yl)-3-cyanobenzenesulfonamide]	0.83	4.44	increased	0.50
Cc1ccc(NS(=O)(=O)c2cccc(C#N)c2)c2[nH]cc(C#N)c12 [Example 1F, N-(3-cyano-4-methyl-1H-indol-7-yl)-3-cyanobenzenesulfonamide]	0.41	0.51	no change	0.42
